We go through 1 compound from publication PMC10220285, “Development of an assay pipeline for the discovery of novel small molecule inhibitors of human glutathione peroxidases GPX1 and GPX4” (Redox Biology, 2023).

The target of the assay is T1, GPX1 (Homo sapiens, UniProt P07203).
T1 construct: made in house; host or cells: E. coli
T1 sequence (P07203 1-203): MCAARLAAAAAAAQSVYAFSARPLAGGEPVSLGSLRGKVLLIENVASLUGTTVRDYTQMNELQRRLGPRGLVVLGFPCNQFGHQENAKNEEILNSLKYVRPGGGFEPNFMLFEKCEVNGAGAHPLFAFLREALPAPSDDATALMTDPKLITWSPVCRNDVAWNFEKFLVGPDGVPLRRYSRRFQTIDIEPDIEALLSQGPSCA
Kind of assay: Monobromobimane orthogonal endpoint assay, GPX1. It is filed as biochemical. The conditions noted are these: initial tests comparing GR-coupled and mBBr assay formats. How it is done:
As an orthogonal assessment of GPX inhibition, a monobromobimane endpoint assay was used (Fig. 1E). Briefly, 30 μL GPX mixture (0.01% BSA and enzyme [1 nM GPX1 or 25 nM GPX4] in TES buffer) was added to columns 2–24 of 384-well black medium-binding plates (Greiner) using a BioRAPTR FRD. TES buffer was used as a no-enzyme control in column 1. Compounds and controls were added in 11-point dose-response titration and incubated with enzyme for 30 min whereupon 10 μL of 400 μM GSH in TES buffer was added before starting the reaction with the addition of 10 μL 200 μM CHP and the reaction was left at room temperature for 10 min (GPX1) or 15 min (GPX4). Upon GPX activity, GSH was depleted over time, whereupon 500 μM mBBr was added and fluorescence at 394/490 was measured using a Viewlux multimodal detector every 20 s for 20 min.
Percent activity was determined by first calculating delta RFU (decrease in fluorescence between t = 0 and t = 20/30 min in primary GPX, GR counter-screen, and TXNRD1 assays, or increase in fluorescence between t = 0 and t = 20 min in the Monobromobimane GPX endpoint assay), and normalizing enzyme activity using median delta RFU values for DMSO-treated enzyme control, and DMSO-treated no-enzyme controls.
Monobromobimane (mBBr) is a heterocyclic compound that reacts readily with low molecular weight thiols, like glutathione. […]

The term IC50 denotes the concentration that inhibits the measured activity by half. Consider `CC(=O)OC[C@H]1O[C@@H]([S-])[C@H](OC(C)=O)[C@@H](OC(C)=O)[C@@H]1OC(C)=O.CCP(CC)CC.[Au+]` [Auranofin], for which half-maximal inhibition (IC50) required 5.3 µM.
